According to patent US7507803B2, “Optimized multi-epitope constructs and uses thereof” (priority 2002, dated 2009):
Like-named read-outs stand apart in the source and are kept apart here. Ends that are not written are not given here.

B1: HBV30K: lead 30 epitope HBV CTL vaccine epigene construct, SEQ ID NO: 71/72 (nucleic acid)
DNA: ATGGGAATGCAGGTGCAAATACAGTCTCTCTTCCTTTTGCTTCTCTGGGTTCCAGGATCACGGGGCTTCTTGCTTAGCTTGGGCATCCACCTAAATGCTGCTGCAAAATACACATCTTTTCCTTGGCTCCTTAATGCCGCCGCTAGGTTTTCATGGCTGAGTCTGCTAGTACCTTTCAATGCGGCTTTCCCACATTGCCTAGCTTTTAGCTATATGAAAGCTGCTTTAGTCGTGGACTTTTCACAGTTTAGCAGAGGAGCAATCCTGCTGCTATGTCTGATATTCCTTCTAAACGCAGCAGCCCACACACTCTGGAAAGCTGGTATCCTTTACAAGAAAGCCTGGATGATGTGGTATTGGGGACCCAGCCTCTACAAAGCATACCCTGCCCTGATGCCACTATACGCATGCATTGGCGCGGCAGCCTGGTTATCCCTTTTAGTACCGTTTGTCAACGCCGCAGCGGGATTTCTATTAACCAGAATCCTGACGATTAATGCTGCCGCCATTCCGATCCCAAGTTCCTGGGCATTCAAAGCAGCCGCGGAGTATCTGGTTTCATTTGGCGTATGGAACCTGCCAAGCGACTTCTTTCCTTCTGTTAAGGCCGCTGCTTTCCTCCCCTCCGATTTCTTTCCATCGGTGAAAGCCGCTGCCGACCTCCTTGATACCGCGAGCGCTCTGTACAACTCGTGGCCAAAATTCGCAGTTCCAAACCTAAAAGCCGCCGCCAGTGCCATTTGTTCCGTGGTAAGGAGAAAATTATCACTCGACGTGTCCGCAGCATTTTATAACGCTGCTGCAAAGTTTGTCGCAGCATGGACATTGAAGGCTGCAGCGAAAGCAGCAAATGTATCAATACCCTGGACCCACAAGGGTGCAGCCGGGCTGTCTAGGTATGTGGCGAGGCTAAACGCCGCCGCCTCAACACTGCCTGAGACTACTGTCGTGAGACGCAAACACCCTGCCGCAATGCCCCACCTGCTGAAAGCAGCCGCACGATGGATGTGCCTCAGAAGATTCATAATAAACGCTTCTTTCTGTGGGTCACCCTACAAAGCCGCTTACATGGACGATGTGGTCCTCGGAGTGAATGCCCTCTGGTTCCATATCAGCTGCCTGACATTCAAGGCAGCCGCCACCCCCGCTCGTGTGACAGGAGGTGTCTTCAAAGCCGCGGCACTGACTTTCGGTCGGGAAACTGTATTGGAATATAAGCAGGCCTTCACATTCTCCCCAACATACAAGTGA
modifications: Hepatitis B Virus

Assays:
HLA supertype alleles = type: binding, human
HLA transgenic mice = assay: CTL priming in HLA transgenic mice after DNA immunization (in situ IFNγ ELISA or chromium release)
HLA-A2 transgenic mice = assay: IFN-γ ELISPOT CTL responses after DNA immunization; type: in vivo, mouse; conditions: mice immunized with GCR-5835
[1] = system: PBL from individuals with acute or chronic HBV infection; conditions: independently reported (Sobao et al. 2001); cited from earlier work
H2^bxd mice = assay: CTL response after peptide/IFA immunization, in situ ELISA; type: in vivo, mouse; conditions: peptide/IFA immunization of H2^bxd mice
HLA-A*0101 = HLA-A*0101 (Homo sapiens, UniProt P04439, A114D/A174V/A182V/D101N/D185E/E176A/E190D/L180R/Q94H/R68K/S129P/T187R/V100A/V91M/W191G); assay: HLA class I peptide binding assay (purified HLA, IC50)
[2] = A2, A3 or B7 supertype, five most common members
[3] = A1 or A24 supertype, three related alleles

Molecule	XRN (number of supertype alleles bound ≦500 nM) (HLA supertype alleles; [2])	XRN (number of supertype alleles bound ≦500 nM) (HLA supertype alleles; [3])	IC50 (HLA-A*0101)	other results
CC[C@H](C)[C@H](NC(=O)[C@@H](NC(=O)[C@H](CC(C)C)NC(=O)[C@@H](NC(=O)[C@H](CCCNC(=N)N)NC(=O)[C@@H](NC(=O)[C@H](CC(C)C)NC(=O)[C@H](CC(C)C)NC(=O)[C@@H](N)Cc1ccccc1)[C@@H](C)O)[C@@H](C)CC)[C@@H](C)O)C(=O)O [env 183]	4			Immunogenicity of the epitope in construct HBV30C (HLA transgenic mice; mouse, in vivo): poorly immunogenic
CC(C)C[C@H](NC(=O)[C@H](CO)NC(=O)[C@H](CC(C)C)NC(=O)[C@@H](N)Cc1c[nH]c2ccccc12)C(=O)N[C@@H](CC(C)C)C(=O)N[C@H](C(=O)N1CCC[C@H]1C(=O)N[C@@H](Cc1ccccc1)C(=O)N[C@H](C(=O)O)C(C)C)C(C)C [env 335]	4			Primary ELISPOT response (HLA-A2 transgenic mice): approximately 100 SFC/10^6 CD8+ cells
CC(C)C[C@H](NC(=O)[C@H](CC(C)C)NC(=O)[C@H](Cc1c[nH]c2ccccc12)NC(=O)[C@@H]1CCCN1C(=O)[C@H](Cc1ccccc1)NC(=O)[C@H](CO)NC(=O)[C@@H](NC(=O)[C@H](Cc1ccc(O)cc1)NC(=O)[C@@H](N)CCCCN)[C@@H](C)O)C(=O)O [pol 745]				Recognition by CTL from HBV-infected individuals [1]: recognized by CTL from HBV-infected individuals; Murine Immunogenicity (SU) (H2^bxd mice): 158.7 SU
H-YSLNFMGY-OH [pol 580]		3	382 nM	
LTFGRETVLEY [core 137]		3	80 nM	
B1				CTL responses induced by the construct (in words) (HLA transgenic mice; HLA transgenic mice (HLA-A2, -A3/A11; H2^bxd for A24)): CTL responses as vigorous as HBV2
